Key:
Parameters in all cases: scale not given: the % may be the effect or the level left
[1] = molecular target: T1, Tyrosine-protein kinase TXK (Homo sapiens) (UniProt P42681); test: Inhibition of human TXK assessed as enzyme activity at 1 uM using EAIYAAPFAKKK as substrate preincubated for 20 mins followed by [gamma-33P]-ATP addition and measured after 120 mins by radiometric Hot-SpotSM Kinase assay relative to control
T1 sequence (whole entry): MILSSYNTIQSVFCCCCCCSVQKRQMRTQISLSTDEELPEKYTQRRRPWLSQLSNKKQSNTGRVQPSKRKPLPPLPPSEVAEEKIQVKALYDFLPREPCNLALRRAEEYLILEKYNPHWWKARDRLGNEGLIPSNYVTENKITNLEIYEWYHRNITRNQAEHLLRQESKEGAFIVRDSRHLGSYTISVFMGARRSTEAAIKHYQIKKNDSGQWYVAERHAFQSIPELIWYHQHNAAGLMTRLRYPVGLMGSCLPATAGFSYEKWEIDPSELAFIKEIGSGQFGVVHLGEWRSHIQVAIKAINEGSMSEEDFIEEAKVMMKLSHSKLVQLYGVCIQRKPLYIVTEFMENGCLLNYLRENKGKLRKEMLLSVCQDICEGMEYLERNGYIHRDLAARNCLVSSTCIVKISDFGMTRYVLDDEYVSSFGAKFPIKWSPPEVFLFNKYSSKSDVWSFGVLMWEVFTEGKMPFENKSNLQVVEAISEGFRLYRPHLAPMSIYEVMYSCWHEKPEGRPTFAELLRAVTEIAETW

[2] = molecular target: T2, Mitogen-activated protein kinase kinase kinase 2 (Homo sapiens) (UniProt Q9Y2U5); test: Inhibition of human MEKK2 assessed as enzyme activity at 1 uM using myelin basic protein as substrate preincubated for 20 mins followed by [gamma-33P]-ATP addition and measured after 120 mins by radiometric Hot-SpotSM Kinase assay relative to control
T2 sequence (whole entry): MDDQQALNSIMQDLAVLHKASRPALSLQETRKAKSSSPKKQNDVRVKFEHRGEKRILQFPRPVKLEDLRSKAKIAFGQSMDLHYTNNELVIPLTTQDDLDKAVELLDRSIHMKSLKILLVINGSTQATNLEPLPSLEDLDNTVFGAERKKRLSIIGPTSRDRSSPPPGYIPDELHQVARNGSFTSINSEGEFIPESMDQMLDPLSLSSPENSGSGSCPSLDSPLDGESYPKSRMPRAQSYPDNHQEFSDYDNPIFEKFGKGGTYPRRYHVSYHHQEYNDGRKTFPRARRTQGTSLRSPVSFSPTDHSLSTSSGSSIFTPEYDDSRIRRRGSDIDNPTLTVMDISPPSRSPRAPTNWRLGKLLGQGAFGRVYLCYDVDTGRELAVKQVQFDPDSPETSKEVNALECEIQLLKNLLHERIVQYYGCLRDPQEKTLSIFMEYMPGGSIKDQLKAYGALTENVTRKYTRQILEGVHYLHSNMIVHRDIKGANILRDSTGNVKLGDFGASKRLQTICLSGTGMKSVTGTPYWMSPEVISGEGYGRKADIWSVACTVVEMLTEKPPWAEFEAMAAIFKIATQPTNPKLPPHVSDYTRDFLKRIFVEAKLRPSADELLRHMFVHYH

[3] = molecular target: T3, Dual specificity tyrosine-phosphorylation-regulated kinase 4 (Homo sapiens) (UniProt Q9NR20); test: Inhibition of human DYRK4 assessed as enzyme activity at 1 uM using RRRFRPASPLRGPPK as substrate preincubated for 20 mins followed by [gamma-33P]-ATP addition and measured after 120 mins by radiometric Hot-SpotSM Kinase assay relative to control
T3 sequence (whole entry): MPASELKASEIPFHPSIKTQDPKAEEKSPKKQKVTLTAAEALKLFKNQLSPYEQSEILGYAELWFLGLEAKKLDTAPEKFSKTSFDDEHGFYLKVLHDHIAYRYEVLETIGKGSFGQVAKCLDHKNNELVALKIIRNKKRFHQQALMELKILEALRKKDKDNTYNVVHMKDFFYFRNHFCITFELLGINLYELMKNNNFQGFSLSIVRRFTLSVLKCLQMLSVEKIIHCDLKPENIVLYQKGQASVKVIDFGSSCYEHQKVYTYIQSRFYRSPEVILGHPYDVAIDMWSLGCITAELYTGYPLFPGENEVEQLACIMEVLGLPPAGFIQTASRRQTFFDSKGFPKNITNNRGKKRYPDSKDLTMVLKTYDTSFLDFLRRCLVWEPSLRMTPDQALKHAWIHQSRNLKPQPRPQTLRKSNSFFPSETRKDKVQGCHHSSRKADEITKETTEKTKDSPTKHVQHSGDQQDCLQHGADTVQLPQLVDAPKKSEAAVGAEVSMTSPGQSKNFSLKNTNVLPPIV

[4] = molecular target: Casein kinase I isoform gamma-2 (Homo sapiens) (UniProt P78368); test: Inhibition of human CK1g2 assessed as enzyme activity at 1 uM using KRRRAL[pS]VASLPGL as substrate preincubated for 20 mins followed by [gamma-33P]-ATP addition and measured after 120 mins by radiometric Hot-SpotSM Kinase assay relative to control
Casein kinase I isoform gamma-2 (Homo sapiens), sequence (P78368 whole entry, looked up, canonical isoform): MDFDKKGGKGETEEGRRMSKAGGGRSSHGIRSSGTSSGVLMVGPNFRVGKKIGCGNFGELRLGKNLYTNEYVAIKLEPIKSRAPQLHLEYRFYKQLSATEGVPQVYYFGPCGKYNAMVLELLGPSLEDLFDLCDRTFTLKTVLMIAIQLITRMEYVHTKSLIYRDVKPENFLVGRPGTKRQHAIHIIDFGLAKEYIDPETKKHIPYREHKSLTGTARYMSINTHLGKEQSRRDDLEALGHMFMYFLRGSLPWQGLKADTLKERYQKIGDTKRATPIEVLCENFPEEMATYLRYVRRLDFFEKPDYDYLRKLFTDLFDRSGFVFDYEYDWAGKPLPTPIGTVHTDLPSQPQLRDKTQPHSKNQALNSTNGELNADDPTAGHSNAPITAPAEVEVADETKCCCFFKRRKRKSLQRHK

[5] = molecular target: Dual specificity mitogen-activated protein kinase kinase 2 (Homo sapiens) (UniProt P36507); test: Inhibition of human MEK2 assessed as enzyme activity at 1 uM using ERK2 (K52R) as substrate preincubated for 20 mins followed by [gamma-33P]-ATP addition and measured after 120 mins by radiometric Hot-SpotSM Kinase assay relative to control
Dual specificity mitogen-activated protein kinase kinase 2 (Homo sapiens), sequence (P36507 whole entry): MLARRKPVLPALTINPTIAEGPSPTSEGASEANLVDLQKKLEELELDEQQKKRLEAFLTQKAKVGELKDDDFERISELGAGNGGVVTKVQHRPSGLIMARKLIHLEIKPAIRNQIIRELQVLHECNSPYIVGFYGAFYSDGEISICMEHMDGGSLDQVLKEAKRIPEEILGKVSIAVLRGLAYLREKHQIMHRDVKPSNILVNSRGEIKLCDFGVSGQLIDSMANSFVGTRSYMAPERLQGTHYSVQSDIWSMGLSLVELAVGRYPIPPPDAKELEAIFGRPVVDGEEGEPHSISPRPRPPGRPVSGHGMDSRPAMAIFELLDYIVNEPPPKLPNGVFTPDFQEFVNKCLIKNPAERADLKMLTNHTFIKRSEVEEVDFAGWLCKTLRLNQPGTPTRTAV

[6] = molecular target: Serine/threonine-protein kinase 38 (Homo sapiens) (UniProt Q15208); test: Inhibition of human STK38 assessed as enzyme activity at 1 uM using KKRNRRLSVA as substrate preincubated for 20 mins followed by [gamma-33P]-ATP addition and measured after 120 mins by radiometric Hot-SpotSM Kinase assay relative to control
Serine/threonine-protein kinase 38 (Homo sapiens), sequence (Q15208 2-465 limits assumed): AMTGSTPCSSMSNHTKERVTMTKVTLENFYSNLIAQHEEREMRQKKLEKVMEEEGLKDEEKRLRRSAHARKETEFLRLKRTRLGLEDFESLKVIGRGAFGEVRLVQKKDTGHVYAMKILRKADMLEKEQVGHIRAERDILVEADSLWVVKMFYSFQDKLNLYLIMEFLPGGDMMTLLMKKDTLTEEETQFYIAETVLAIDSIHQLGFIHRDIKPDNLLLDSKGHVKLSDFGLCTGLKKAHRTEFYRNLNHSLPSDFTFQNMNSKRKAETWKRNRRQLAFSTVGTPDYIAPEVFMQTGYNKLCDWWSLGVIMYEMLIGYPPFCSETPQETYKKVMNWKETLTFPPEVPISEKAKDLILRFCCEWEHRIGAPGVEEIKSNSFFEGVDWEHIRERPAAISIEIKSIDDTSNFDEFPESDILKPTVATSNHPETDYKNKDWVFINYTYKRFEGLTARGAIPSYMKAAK

[7] = molecular target: CDK18/Cyclin Y (Homo sapiens) (UniProt Q07002+Q8ND76); test: Inhibition of human CDK18/cyclin Y assessed as enzyme activity at 1 uM using RB Protein as substrate preincubated for 20 mins followed by [gamma-33P]-ATP addition and measured after 120 mins by radiometric Hot-SpotSM Kinase assay relative to control; format: protein-complex assay
[8] = molecular target: Myosin light chain kinase, smooth muscle (Homo sapiens) (UniProt Q15746); test: Inhibition of human MLCK assessed as enzyme activity at 1 uM using KKLNRTLSFAEPG as substrate preincubated for 20 mins followed by [gamma-33P]-ATP addition and measured after 120 mins by radiometric Hot-SpotSM Kinase assay relative to control
Myosin light chain kinase, smooth muscle (Homo sapiens), sequence (Q15746 whole entry): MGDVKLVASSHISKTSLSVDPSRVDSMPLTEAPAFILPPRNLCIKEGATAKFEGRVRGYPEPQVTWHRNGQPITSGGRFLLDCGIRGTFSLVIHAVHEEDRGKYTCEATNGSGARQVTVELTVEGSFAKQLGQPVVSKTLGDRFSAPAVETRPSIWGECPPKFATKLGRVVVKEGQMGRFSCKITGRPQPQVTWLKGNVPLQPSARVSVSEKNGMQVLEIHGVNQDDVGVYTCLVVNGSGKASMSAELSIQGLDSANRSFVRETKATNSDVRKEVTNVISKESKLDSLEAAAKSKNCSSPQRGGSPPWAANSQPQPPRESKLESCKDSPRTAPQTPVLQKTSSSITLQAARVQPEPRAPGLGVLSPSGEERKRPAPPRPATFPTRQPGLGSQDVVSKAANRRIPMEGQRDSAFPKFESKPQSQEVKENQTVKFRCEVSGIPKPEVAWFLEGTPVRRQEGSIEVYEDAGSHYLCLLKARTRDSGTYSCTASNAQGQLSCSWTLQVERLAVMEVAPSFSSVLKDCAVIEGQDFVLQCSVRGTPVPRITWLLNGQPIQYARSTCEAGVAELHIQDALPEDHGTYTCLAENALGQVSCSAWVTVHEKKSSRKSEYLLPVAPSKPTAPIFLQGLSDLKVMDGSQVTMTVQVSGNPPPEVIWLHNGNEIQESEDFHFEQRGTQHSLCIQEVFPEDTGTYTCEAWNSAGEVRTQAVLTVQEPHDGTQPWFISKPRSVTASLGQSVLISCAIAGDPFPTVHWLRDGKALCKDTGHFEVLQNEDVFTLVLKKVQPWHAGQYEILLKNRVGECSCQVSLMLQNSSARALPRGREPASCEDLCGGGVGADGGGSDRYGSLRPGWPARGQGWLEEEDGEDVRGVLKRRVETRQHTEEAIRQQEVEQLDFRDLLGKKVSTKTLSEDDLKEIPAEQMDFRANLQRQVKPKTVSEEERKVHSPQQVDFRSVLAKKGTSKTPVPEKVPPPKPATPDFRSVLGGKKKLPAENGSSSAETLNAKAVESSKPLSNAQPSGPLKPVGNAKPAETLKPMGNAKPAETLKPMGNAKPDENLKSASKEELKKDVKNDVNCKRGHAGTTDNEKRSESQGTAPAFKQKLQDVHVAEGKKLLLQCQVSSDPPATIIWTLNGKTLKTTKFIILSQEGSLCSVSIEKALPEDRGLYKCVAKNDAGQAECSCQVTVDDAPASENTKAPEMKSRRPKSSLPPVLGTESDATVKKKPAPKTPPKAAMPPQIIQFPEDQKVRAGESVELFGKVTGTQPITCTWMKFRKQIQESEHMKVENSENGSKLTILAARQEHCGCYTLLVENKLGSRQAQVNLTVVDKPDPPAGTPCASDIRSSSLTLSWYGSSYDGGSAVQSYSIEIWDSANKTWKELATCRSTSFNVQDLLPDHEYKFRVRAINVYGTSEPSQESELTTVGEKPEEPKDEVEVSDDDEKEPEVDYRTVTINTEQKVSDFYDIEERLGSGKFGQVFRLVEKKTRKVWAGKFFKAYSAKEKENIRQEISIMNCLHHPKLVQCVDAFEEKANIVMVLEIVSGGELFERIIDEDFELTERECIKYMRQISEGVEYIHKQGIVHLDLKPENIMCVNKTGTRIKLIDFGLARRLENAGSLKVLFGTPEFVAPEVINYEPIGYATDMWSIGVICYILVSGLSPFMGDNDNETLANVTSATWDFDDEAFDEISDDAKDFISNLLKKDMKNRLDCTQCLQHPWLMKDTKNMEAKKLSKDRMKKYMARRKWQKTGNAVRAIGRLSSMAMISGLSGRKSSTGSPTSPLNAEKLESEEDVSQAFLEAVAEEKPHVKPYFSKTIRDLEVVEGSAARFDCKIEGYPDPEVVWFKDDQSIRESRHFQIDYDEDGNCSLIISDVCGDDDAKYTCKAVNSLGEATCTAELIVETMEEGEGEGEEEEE

[9] = molecular target: Serine/threonine-protein kinase SBK1 (Homo sapiens) (UniProt Q52WX2); test: Inhibition of human SBK1 assessed as enzyme activity at 1 uM using LCGRTGRRNSI as substrate preincubated for 20 mins followed by [gamma-33P]-ATP addition and measured after 120 mins by radiometric Hot-SpotSM Kinase assay relative to control
Serine/threonine-protein kinase SBK1 (Homo sapiens), sequence (Q52WX2 whole entry): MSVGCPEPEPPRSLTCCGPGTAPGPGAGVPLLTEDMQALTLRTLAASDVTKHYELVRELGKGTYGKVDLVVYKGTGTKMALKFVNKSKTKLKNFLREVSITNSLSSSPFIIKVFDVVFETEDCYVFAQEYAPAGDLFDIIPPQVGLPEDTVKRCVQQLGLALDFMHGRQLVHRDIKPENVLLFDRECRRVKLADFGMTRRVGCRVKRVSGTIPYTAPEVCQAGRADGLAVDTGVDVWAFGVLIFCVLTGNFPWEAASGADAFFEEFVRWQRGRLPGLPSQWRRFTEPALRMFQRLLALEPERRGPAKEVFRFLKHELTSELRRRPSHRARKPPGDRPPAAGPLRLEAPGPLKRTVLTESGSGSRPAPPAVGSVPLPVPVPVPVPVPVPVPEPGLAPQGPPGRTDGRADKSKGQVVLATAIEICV

[10] = molecular target: Maternal embryonic leucine zipper kinase (Homo sapiens) (UniProt Q14680); test: Inhibition of human MELK assessed as enzyme activity at 1 uM using KKLNRTLSFAEPG as substrate preincubated for 20 mins followed by [gamma-33P]-ATP addition and measured after 120 mins by radiometric Hot-SpotSM Kinase assay relative to control
Maternal embryonic leucine zipper kinase (Homo sapiens), sequence (Q14680 whole entry, looked up): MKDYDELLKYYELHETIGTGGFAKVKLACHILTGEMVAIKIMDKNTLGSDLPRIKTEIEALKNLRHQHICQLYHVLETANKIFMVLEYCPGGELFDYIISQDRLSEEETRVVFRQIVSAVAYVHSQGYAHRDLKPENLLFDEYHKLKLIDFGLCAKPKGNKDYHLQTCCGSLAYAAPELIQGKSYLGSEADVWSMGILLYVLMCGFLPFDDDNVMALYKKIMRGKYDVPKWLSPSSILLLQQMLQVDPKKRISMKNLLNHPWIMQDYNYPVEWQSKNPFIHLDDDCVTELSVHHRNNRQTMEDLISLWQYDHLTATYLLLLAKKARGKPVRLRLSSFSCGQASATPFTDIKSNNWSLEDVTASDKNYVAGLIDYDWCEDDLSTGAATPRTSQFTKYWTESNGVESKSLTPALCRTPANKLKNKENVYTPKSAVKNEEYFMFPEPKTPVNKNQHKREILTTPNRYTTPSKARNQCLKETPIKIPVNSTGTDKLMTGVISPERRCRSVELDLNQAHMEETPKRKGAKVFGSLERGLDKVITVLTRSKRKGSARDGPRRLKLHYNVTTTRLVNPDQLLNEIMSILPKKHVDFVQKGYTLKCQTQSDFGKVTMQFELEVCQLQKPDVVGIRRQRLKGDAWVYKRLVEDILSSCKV

Row | SMILES | Activity [1] [%] | Activity [2] [%] | Activity [3] [%] | Activity [4] [%] | Activity [5] [%] | Activity [6] [%] | Activity [7] [%] | Activity [8] [%] | Activity [9] [%] | Activity [10] [%]
1 | CC[C@H](Nc1ncnc2[nH]cnc12)c1nc2cccc(F)c2c(=O)n1-c1ccccc1 | 109 | 101 | 100 | 99.7 | 91.5 | 94.5 | 85.7 | 96.1 | 101 | 93.6
2 | C[C@H](Nc1ncnc2nc[nH]c12)c1cc2cccc(Cl)c2c(=O)n1-c1ccccc1 | 101 | 94.9 | 97.1 | 98.5 | 90 | 86.5 | 100 | 91.7 | 99.5 | 94.5
3 | CC(C)Oc1ccc(-c2nn([C@@H](C)c3oc4ccc(F)cc4c(=O)c3-c3cccc(F)c3)c3ncnc(N)c23)cc1F [UMBRALISIB] | 111 | 108 | 98.8 | 104 | 90.4 | 91.4 | 94.6 | 92.4 | 98.8 | 105
